Reference: article PMC10254193, “Early Molecular Insights into Thanatin Analogues Binding to A. baumannii LptA” (Molecules, 2023)
≈ marks a conversion by molar mass, not a printed value. Bridge positions count the residues as written; N and C are the ends. Square brackets hold non-standard residues; d marks the D form. Peptide text beside a SMILES is read from it. Hyp = O=C(O)[C@@H]1C[C@@H](O)CN1; Pen = CC(C)(S)[C@H](N)C(=O)O; dDab = NCC[C@@H](N)C(=O)O; Nle = CCCC[C@H](N)C(=O)O; Dab = NCC[C@H](N)C(=O)O

T1: A. baumannii LptAm2.0 (LptAm(Ab)2.0) (A. baumannii ATCC 17978, UniProt V5VEZ9 33-159)
T1 construct: LptA of A. baumannii ATCC 17978, L33 to G159: as LptAm(Ab)1.0 with a further 5-residue truncation at the C-terminus; source: E. coli BL21(DE3), purified (two-step NiNTA with TEV cleavage); not shown: GB1 (protein G B1 domain), N-terminal, cleaved; His tag, N-terminal, cleaved
T1 sequence: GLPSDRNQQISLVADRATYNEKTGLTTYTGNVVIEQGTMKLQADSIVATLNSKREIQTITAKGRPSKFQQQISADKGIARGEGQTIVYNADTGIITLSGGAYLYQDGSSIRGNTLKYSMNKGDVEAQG

B1: A. baumannii LptAm2.0 (LptAm(Ab)2.0) (domain or fragment)
chain: T1 sequence
B2: Thanatin (peptide)
peptide: GSKKPVPIIYCNRRTGKCQRM
notes: thanatin, the naturally occurring 21-mer; positions 1′-21′; also called native thanatin

Columns and labels:
P. aeruginosa ATCC 27853 = format: cell-based
From the text: Table 1 LptA sequence identity to E. coli and MIC values (µg/mL). | column: P. aeruginosa ATCC 27853

K. pneumoniae ATCC 43816 = format: cell-based
From the text: Table 1 LptA sequence identity to E. coli and MIC values (µg/mL). | column: K. pneumoniae ATCC 43816

E. coli ATCC 25922 = format: cell-based
From the text: Table 1 LptA sequence identity to E. coli and MIC values (µg/mL). | column: E. coli ATCC 25922

A. baumannii DSM 30008 = format: cell-based
From the text: Table 1 LptA sequence identity to E. coli and MIC values (µg/mL). | column: A. baumannii DSM 30008

LptAm(Ab)2.0 [1] = test: Fluorescence polarization competition (indirect) binding assay, displacement of than-FL; set-up: species or system A. baumannii; conditions: competition FP, than-FL 10 µM, triplicate; for IC50: 1:1 LptAm(Ab)2.0 and than-FL, FP buffer pH 7, overnight 4 °C, read at 25 °C, read-out: IC50 ± 95CI; for Ki: from IC50 and KD of than-FL by Cheng–Prusoff equation, read-out: KI ± 95CI
Description: The dissociation constant (KD) of than-FL was first determined in a direct binding assay and measured as 3.7 ± 0.5 µM (Figure 5, left) (Table 3). Subsequently, competitive binding assays were performed to determine the inhibition constants (KIs) of the unlabeled thanatin derivatives 1, 2, 5, 6, and 7. For each thanatin derivative tested, a serial dilution was prepared in triplicate on a single 96-well plate, to which a 1:1 mixture of LptAm(Ab)2.0 and than-FL was added. […] Determination of the KIs was achieved from the empirically derived IC50 values and KD of than-FL using the Cheng–Prusoff equation [27].
Protein stocks were purified and concentrated in SEC buffer (50 mM NaPi pH 7, 150 mM NaCl), and if necessary diluted to the desired concentration using FP buffer (50 mM NaPi pH 7, 150 mM NaCl, 0.05% Tween20). Peptide stocks and fluorescently labeled peptide stocks were made in FP buffer. A 1:1 serial dilution of 24 wells was prepared first by adding 100 µL of the unlabeled protein (e.g., LptAm(Ab)2.0) or peptide (e.g., 1, 2, 5–7), starting at high concentrations, 100–500 µM, in well one. Then, 50 µL was taken from the first well and added to 50 µL of FP buffer in the subsequent well, homogenized and repeated for the remaining of the 24-well series. Then, 50 µL of 2x stock of the fluorescently labeled thanatin (than-FL) was added to the dilution series. For the direct binding assays, 10 µM than-FL was used as the 2x stock, and for the indirect binding assays, a 1:1 mixture of 20 µM Lpt protein variant and 20 µM than-FL was used as the 2x stock; the final working concentrations of the than-FL were 5 µM and 10 µM, respectively. Plates were left to incubate overnight at 4 °C before fluorescence polarization (FP) measurements. Anisotropy was measured using the Tecan Safire^2 plate reader using a 10 nm bandwidth and setting the excitation and emission wavelengths to 635 nm and 670 nm, respectively. The G-factor (G) was also determined empirically as 1.094 for the instrument and included in all the anisotropy calculations.
For the indirect binding assays, r was calculated in the same manner as the direct binding assays. To control for non-specific binding between than-FL and competitors, than-FL alone was added to a replicate dilution series of the unlabeled peptide on the same plate. The control was subtracted from r to yield r’. Data were fit to a sigmoidal interpolation model on GraphPad Prism 9, and an IC50 was generated for each unlabeled peptide or protein measured. The inhibition constants (Kis) were calculated using the Cheng–Prusoff equation, Ki=IC50×1+LT/KD^−1 , in which the total concentration of than-FL (LT) was used as well as the KD previously derived from the peptide’s cognate direct binding assay.

LptAm(Ab)2.0 [2] = test: Fluorescence polarization direct binding assay; set-up: species or system A. baumannii; conditions: direct FP, than-FL 5 µM, LptAm(Ab)2.0 serial dilution, FP buffer 50 mM NaPi pH 7, 150 mM NaCl, 0.05% Tween20, overnight 4 °C, read at 25 °C, triplicate; read-out: KD ± 95CI
From the text: As previously mentioned, a second A. baumannii LptA protein construct (LptAm(Ab)2.0), truncated at G159 of the C-terminus had improved monomeric behavior in solution and was used for binding affinity assays. The protein underwent routine checks for purity via a Coomassie-stained SDS-PAGE (Figure S1), and its binding to 7 in a titration series was observed using analytical SEC (Figure 2B), before proceeding with fluorescence polarization (FP). The fluorescent label, Alexa647, was conjugated to thanatin at the first position, as described in [24]. […]
Protein stocks were purified and concentrated in SEC buffer (50 mM NaPi pH 7, 150 mM NaCl), and if necessary diluted to the desired concentration using FP buffer (50 mM NaPi pH 7, 150 mM NaCl, 0.05% Tween20). […] Plates were left to incubate overnight at 4 °C before fluorescence polarization (FP) measurements. Anisotropy was measured using the Tecan Safire^2 plate reader using a 10 nm bandwidth and setting the excitation and emission wavelengths to 635 nm and 670 nm, respectively. The G-factor (G) was also determined empirically as 1.094 for the instrument and included in all the anisotropy calculations.
For direct binding assays, fluorescence anisotropy (r) was calculated using the parallel and perpendicular polarized intensities using the equation r=I∥−I⊥∗G/I∥+2I⊥∗G . […]

[3] = biological target: than-FL (fluorescently labeled thanatin, Alexa647); test: fluorescence polarisation; direct binding: LptAm(Ab)2.0 serially diluted, than-FL 5 µM; 50 mM NaPi pH 7, 150 mM NaCl, 0.05% Tween20; incubated overnight at 4 °C, executed at ambient temperature (25 °C); One site - Total fit
[4] = biological target: T1, A. baumannii LptAm2.0 (LptAm(Ab)2.0); test: fluorescence polarisation; competition: unlabeled peptide serially diluted, 1:1 mixture of LptAm(Ab)2.0 and than-FL added (than-FL 10 µM final); 50 mM NaPi pH 7, 150 mM NaCl, 0.05% Tween20; KI from IC50 by the Cheng-Prusoff equation; conditions: both partners purified

| Molecule | MIC (P. aeruginosa ATCC 27853) [µg/mL] | MIC (K. pneumoniae ATCC 43816) [µg/mL] | MIC (E. coli ATCC 25922) [µg/mL] | MIC (A. baumannii DSM 30008) [µg/mL] | IC50 (LptAm(Ab)2.0 [1]) [µM] | Ki (LptAm(Ab)2.0 [1]) [µM] | Kd (LptAm(Ab)2.0 [2]) [µM] | Kd [3] [µM] | IC50 [4] [µM] | Ki [4] [µM] |
| --- | --- | --- | --- | --- | --- | --- | --- | --- | --- | --- |
| CCCC[C@H](NC(=O)[C@H](CCCNC(=N)N)NC(=O)[C@H](CCN)NC(=O)[C@@H]1CSSC[C@H](NC(=O)[C@H](Cc2ccc(O)cc2)NC(=O)[C@@H](NC(=O)[C@@H](NC(=O)[C@@H]2CCCN2C(=O)[C@@H](NC(=O)[C@@H]2CCCN2C(=O)[C@H](CCCCN)NC(=O)[C@@H](N)CCCCN)C(C)C)[C@@H](C)CC)[C@@H](C)CC)C(=O)N[C@@H](CC(N)=O)C(=O)N[C@@H](CCCNC(=N)N)C(=O)N[C@@H](CCCNC(=N)N)C(=O)N[C@@H]([C@@H](C)O)C(=O)NCC(=O)N[C@@H](CCCCN)C(=O)N1)C(=O)O [Peptide 1] (H-KKPVPIIYCNRRTGKC[Dab]R[Nle]-OH; disulfide 9-16) | >64 | 0.250 (≈ 0.111 µM) | 0.063 (≈ 0.0281 µM) | >32 |  |  |  |  |  |  |
| CC[C@H](C)[C@H](NC(=O)[C@@H](NC(=O)[C@@H]1CCCN1C(=O)[C@@H](NC(=O)[C@@H]1CCCN1C(=O)[C@H](CCCCN)NC(=O)[C@@H](N)CCCCN)C(C)C)[C@@H](C)CC)C(=O)N[C@@H](Cc1ccc(O)cc1)C(=O)N[C@@H]1C(=O)N[C@@H](CC(N)=O)C(=O)N[C@@H](CCCNC(=N)N)C(=O)N[C@@H](CCN)C(=O)N[C@@H]([C@@H](C)O)C(=O)N[C@H](CCN)C(=O)N[C@@H](CCCCN)C(=O)N[C@H](C(=O)N[C@@H](CCN)C(=O)N[C@@H](CCCNC(=N)N)C(=O)N[C@@H](Cc2ccc(O)cc2)C(=O)O)CSSC1(C)C [Peptide 2] (H-KKPVPIIY[Pen]NR[Dab]T[dDab]KC[Dab]RY-OH; disulfide 9-16; N-terminus and C-terminus assumed) | >32 | 0.125 (≈ 0.0541 µM) | 0.031 (≈ 0.0134 µM) | >32 | 24.1 ± 6.3 | 6.5 ± 1.7 |  |  |  |  |
| CC[C@H](C)[C@H](NC(=O)[C@@H](NC(=O)[C@@H]1C[C@@H](O)CN1C(=O)[C@@H](N)C(C)C)[C@@H](C)CC)C(=O)N[C@@H](Cc1ccc(O)cc1)C(=O)N[C@@H]1C(=O)N[C@@H](CC(N)=O)C(=O)N[C@@H](CCCNC(=N)N)C(=O)N[C@@H](CCN)C(=O)N[C@@H]([C@@H](C)O)C(=O)N[C@H](CCN)C(=O)N[C@@H](CCCCN)C(=O)N[C@H](C(=O)N[C@@H](CCN)C(=O)N[C@@H](CCN)C(=O)N[C@@H](Cc2ccc(O)cc2)C(=O)O)CSSC1(C)C [Peptide 5] (H-V[Hyp]IIY[Pen]NR[Dab]T[dDab]KC[Dab][Dab]Y-OH; disulfide 6-13; N-terminus and C-terminus assumed) | >32 | 0.250 (≈ 0.131 µM) | 0.063 (≈ 0.0329 µM) | >32 | 11.5 ± 0.7 | 3.1 ± 0.2 |  |  |  |  |
| CC[C@H](C)[C@H](NC(=O)[C@@H]1C[C@@H](O)CN1C(=O)[C@@H](N)C(C)C)C(=O)N[C@H](C(=O)N[C@@H](Cc1ccc(O)cc1)C(=O)N[C@@H]1C(=O)N[C@@H](CC(N)=O)C(=O)N[C@@H](CCCNC(=N)N)C(=O)N[C@@H](CCN)C(=O)N[C@@H]([C@@H](C)O)C(=O)N[C@H](CCN)C(=O)N[C@@H](CCCCN)C(=O)N[C@H](C(=O)N[C@@H](CCN)C(=O)N[C@@H](CCCNC(=N)N)C(=O)N[C@@H](Cc2ccc(O)cc2)C(=O)O)CSSC1(C)C)[C@@H](C)O [Peptide 6] (H-V[Hyp]ITY[Pen]NR[Dab]T[dDab]KC[Dab]RY-OH; disulfide 6-13; N-terminus and C-terminus assumed) | >32 | 0.250 (≈ 0.128 µM) | 0.125 (≈ 0.0638 µM) | >32 | 15.4 ± 1.3 | 4.1 ± 0.4 |  |  |  |  |
| Than-FL: fluorescently labeled thanatin, Alexa647 conjugated at the first position; reporter in all FP assays |  |  |  |  |  |  | 3.7 ± 0.5 |  |  |  |
| B1 |  |  |  |  |  |  |  | 3.7 |  |  |
| B2 |  |  |  |  |  |  |  |  | 11.8 | 3.2 |
